# Assay results from US11458138B2 (Novartis AG, priority 2017, dated 2022).
# What was measured:
# LATS1 = LATS1 (Homo sapiens (Human), UniProt O95835); assay: LATS1 biochemical assay (Table 1A, Compound Examples 1-290; method in the earlier part)
# [1] = tested on: Phospho-YAP (SER127) in HaCaT cells; assay: pYAP HTRF Assay (HaCaT Cells); format: cell-based, human; conditions: 2 hours
# Protocol: The pYAP HTRF assay was performed using the Phospho-YAP (SER127) 10000 test kit (CisBio, catalogue number 64YAPPEH) according to manufacturer's instructions. Briefly, HaCaT cells were suspended at 1.1×10^6 cells/mL in DMEM (no phenol red)+10% FBS with penicillin-streptomycin-glutamine. 5 μL of cells were dispensed into 1536 well white solid bottom, tissue culture treated plates (5500 cells/well), and incubated for 48 hours at 37° C. 50 nL test compound was transferred into the assay plates containing HaCaT cells using Pintool (GNF) and incubated for 2 hours. […] The plates were incubated overnight (20 hrs) at room temperature covered with metal lids. Plates were read on Pherastar (BMG Labtech) for HTRF (665 nm/620 nm).
# [2] = tested on: YAP nuclear translocation in HaCaT cells; assay: YAP Translocation Assay (HaCaT Cells); format: cell-based, human; conditions: 24 hours
# Protocol: HaCaT cells were suspended at 0.4×10^6 cells/ml in DMEM+10% FBS with penicillin-streptomycin-glutamine. 50 μl of cells were dispensed into 384-well clear bottom assay plates (20,000 cells/well), and incubated overnight at 37° C. 100 nL test compound was transferred into the assay wells containing HaCaT cells using ECHO (Labcyte). After 24 hours incubation at 37° C., 7 μL of 32% PFA was dispensed into each well and incubated for 45 minutes at room temperature. Plates were washed 3 times with PBS, leaving 20 μL of PBS per well, then treated with 0.1% Triton and 1.5% BSA in PBS for 45 minutes at room temperature. Plates were washed for 5 times with PBS, leaving 20 μL of PBS per well. […] Plates were further washed 3 time with PBS, sealed and imaged on the high-content Opera imaging system (PerkinElmer).
# LATS1, sequence (O95835 whole entry, looked up): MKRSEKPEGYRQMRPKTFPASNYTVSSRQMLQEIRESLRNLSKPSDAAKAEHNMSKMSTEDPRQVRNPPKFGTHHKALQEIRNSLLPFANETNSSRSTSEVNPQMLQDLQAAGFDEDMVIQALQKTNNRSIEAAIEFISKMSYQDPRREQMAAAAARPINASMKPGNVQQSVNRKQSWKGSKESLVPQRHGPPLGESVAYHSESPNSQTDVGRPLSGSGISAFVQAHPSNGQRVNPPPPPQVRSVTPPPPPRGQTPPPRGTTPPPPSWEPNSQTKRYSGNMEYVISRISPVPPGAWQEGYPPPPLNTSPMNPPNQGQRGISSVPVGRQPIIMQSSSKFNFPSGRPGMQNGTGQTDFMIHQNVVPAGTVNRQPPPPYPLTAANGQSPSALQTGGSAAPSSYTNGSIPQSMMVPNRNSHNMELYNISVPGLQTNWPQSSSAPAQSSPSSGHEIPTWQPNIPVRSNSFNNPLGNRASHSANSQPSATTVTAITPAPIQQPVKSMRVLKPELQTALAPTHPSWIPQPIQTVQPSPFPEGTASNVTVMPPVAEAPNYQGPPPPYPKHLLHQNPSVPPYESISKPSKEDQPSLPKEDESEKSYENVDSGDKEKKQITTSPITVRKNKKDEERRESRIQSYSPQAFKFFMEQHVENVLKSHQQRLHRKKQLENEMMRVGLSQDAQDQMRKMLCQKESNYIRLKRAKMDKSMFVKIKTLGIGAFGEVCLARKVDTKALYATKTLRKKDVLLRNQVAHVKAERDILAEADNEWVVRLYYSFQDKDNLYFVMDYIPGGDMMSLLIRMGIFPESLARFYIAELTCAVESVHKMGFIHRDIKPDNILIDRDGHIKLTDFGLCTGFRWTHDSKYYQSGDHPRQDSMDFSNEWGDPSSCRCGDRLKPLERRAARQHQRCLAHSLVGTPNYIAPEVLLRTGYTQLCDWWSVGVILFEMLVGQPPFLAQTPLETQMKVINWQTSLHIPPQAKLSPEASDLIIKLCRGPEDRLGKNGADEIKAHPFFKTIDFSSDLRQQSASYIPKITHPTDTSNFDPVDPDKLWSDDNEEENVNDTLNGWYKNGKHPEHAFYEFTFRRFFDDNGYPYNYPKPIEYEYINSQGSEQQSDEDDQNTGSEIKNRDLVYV
# LATS1, sequence (Q7L9L4 whole entry partner, looked up): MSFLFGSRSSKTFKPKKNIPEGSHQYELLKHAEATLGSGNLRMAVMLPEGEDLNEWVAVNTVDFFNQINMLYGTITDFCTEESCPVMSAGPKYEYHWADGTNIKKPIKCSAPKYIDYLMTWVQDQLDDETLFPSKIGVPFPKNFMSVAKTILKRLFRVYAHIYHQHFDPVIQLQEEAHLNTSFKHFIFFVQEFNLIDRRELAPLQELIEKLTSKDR
SMILES,IC50 (LATS1) [nM],IC50 ([1]; Homo sapiens) [nM],EC50 ([2]; Homo sapiens) [nM],IC50 [1] [nM],EC50 [2] [nM]
"C[C@H]1CCC[C@H]1Nc1nc(-c2ccncc2)nc2cnccc12 (single isomer, unassigned) [Example 17a]",3,4950,4100,,
"C[C@@H]1CCC[C@@H]1Nc1nc(-c2ccncc2)nc2cnccc12 (single isomer, unassigned) [Example 17b]",0.9,765,1220,,
"CC1CCCC1Nc1nc(-c2ccncc2)nc2cnccc12 (single isomer, unassigned) [Example 17c]",3,,,4280,4680
"CC1CCCC1Nc1nc(-c2ccncc2)nc2cnccc12 (single isomer, unassigned) [Example 17d]",1,,,402,1720
"CC(C)(Nc1nc(-c2ccncc2)nc2cnccc12)C1CC1 [Example 1, N-(2-cyclopropylpropan-2-yl)-2-(pyridin-4-yl)pyrido[3,4-d]pyrimidin-4-amine]",1,19,326,,
"CCCCN(C)c1nc(-c2ccncc2)nc2cnccc12 [Example 9, N-butyl-N-methyl-2-(pyridin-4-yl)pyrido[3,4-d]pyrimidin-4-amine]",3,2100,2420,,
"CCNc1nc(-c2ccncc2)nc2cnccc12 [Example 13, N-ethyl-2-(pyridin-4-yl)pyrido[3,4-d]pyrimidin-4-amine]",4,13400,8510,,
"CC1(Nc2nc(-c3ccncc3)nc3cnccc23)COC1 [Example 16, N-(3-methyloxetan-3-yl)-2-(pyridin-4-yl)pyrido[3,4-d]pyrimidin-4-amine]",5,9790,15800,,
"CC(O)C(C)(C)Nc1nc(-c2ccncc2)nc2cnccc12 (centres unmarked) [Example 18, 3-methyl-3-{[2-(pyridin-4-yl)pyrido[3,4-d]pyrimidin-4-yl]amino}butan-2-ol]",6,1520,3460,,
"CCCCNc1nc(-c2ccncc2)nc2cnccc12 [Example 19, N-butyl-2-(pyridin-4-yl)pyrido[3,4-d]pyrimidin-4-amine]",6,24800,17600,,
"CC(C)(CCc1ccccc1)Nc1nc(-c2ccncc2)nc2cnccc12 [Example 20, N-(2-methyl-4-phenylbutan-2-yl)-2-(pyridin-4-yl)pyrido[3,4-d]pyrimidin-4-amine]",6,1770,5180,,
"c1cc(-c2nc(NC3CC3)c3ccncc3n2)ccn1 [Example 21, N-cyclopropyl-2-(pyridin-4-yl)pyrido[3,4-d]pyrimidin-4-amine]",7,19200,8810,,
"CC(C)(CCS(C)(=O)=O)Nc1nc(-c2ccncc2)nc2cnccc12 [Example 22, N-(4-methanesulfonyl-2-methylbutan-2-yl)-2-(pyridin-4-yl)pyrido[3,4-d]pyrimidin-4-amine]",7,11400,13000,,
"CC(CO)(CO)Nc1nc(-c2ccncc2)nc2cnccc12 [Example 23, 2-methyl-2-{[2-(pyridin-4-yl)pyrido[3,4-d]pyrimidin-4-yl]amino}propane-1,3-diol]",10,9580,11800,,
"CC1(Nc2nc(-c3ccnc4[nH]ccc34)nc3cnccc23)CC1 [Example 154, N-(1-methylcyclopropyl)-2-{1H-pyrrolo[2,3-b]pyridin-4-yl}pyrido[3,4-d]pyrimidin-4-amine]",,2530,1060,,

# Continued, in another order:
IC50 (LATS1) [nM],SMILES,IC50 ([1]; Homo sapiens) [nM],EC50 ([2]; Homo sapiens) [nM],IC50 [1] [nM],EC50 [2] [nM]
1,"CC[C@H](C)Nc1nc(-c2ccncc2)nc2cnccc12 (single isomer, unassigned) [Example 68a]",1430,1680,,
2,"CC[C@@H](C)Nc1nc(-c2ccncc2)nc2cnccc12 (single isomer, unassigned) [Example 68b]",4270,2920,,
